Results taken from ChEMBL document CHEMBL1158994, “Methylpendolmycin, an indolactam from a Nocardiopsis sp” (J Nat Prod, 1991).
In brackets after ≈: the same amount, converted by molar mass.

Molecular target: Protein kinase C (PKC)
Assay: Displacement of radiolabeled PDBU from PKC in rat forebrain
Type: tissue-based

Ki [nM]	IC50 [µg/mL]	Structure (SMILES)
500		CCCCCCCCCCCCCC(=O)O[C@@H]1[C@@H](C)[C@@]2(O)[C@@H](C=C(CO)C[C@]3(OC)C(=O)C(C)=C[C@@H]23)[C@@H]2C(C)(C)[C@]12OC(C)=O
	0.0135 (≈ 0.0352 µM)	C=CC(C)(C)c1ccc2c3c(c[nH]c13)C[C@@H](CO)NC(=O)[C@H]([C@@H](C)CC)N2C [METHYLPENDOLMYCIN]
